{"source": "patent US20200276181A1", "about": "“THIENOISOQUINOLINES AND THEIR DERIVATIVES FOR TARGETING TUBULIN, CH-TOG, AURORA A KINASE, TPX2, CDK5RAP2 AND/OR ASPM” (VALORBEC, SEC, priority 2017, published 2020)", "key": {"[1]": {"system": "HeLa cells (GFP:tubulin, SiR-tubulin or GFP-tagged ch-TOG)", "test": "Live imaging of spindles", "assay_type": "cell-based, human", "source_text": "Bars show standard deviation. […] The bars indicate standard deviation. […] Bars show standard deviation. […] Bars show standard deviation. […] The scale bar for all cells is 10 μm."}, "HCT 116 cells": {"system": "HCT 116 cells", "test": "Spindle phenotypes, paclitaxel and C75 combination", "assay_type": "cell-based", "conditions": "7 hours, at 100 and 200 nM", "experimental": "FIG. 3A) is a line graph showing cytotoxicity of HeLa cells after treatment with varying concentrations of C75+/−a subthreshold dose of paclitaxel (Taxol™; 3 nM). The IC50 is shown by the dotted line. Bars show standard deviation. FIG. 3B) is a line graph showing the percentage of mitotic HeLa or HFF1 cells treated with a range of paclitaxel concentrations+/−C75 as indicated. The bars indicate standard deviation. FIG. 3C) is a series of bar graphs showing the proportion of HCT 116 cells with bipolar aligned (grey), bipolar misaligned (dark grey), multipolar/fragmented (light grey, top portion of each bar) or monopolar (black) spindles 7 hours after treatment with control (DMSO), varying concentrations of paclitaxel or C75, or both as indicated (n=691; N=3). The bars show standard deviation. The combination treatments were compared to paclitaxel and C75 on their own by calculating ratios varying from the predicted ratio, and found to synergize at 100 and 200 nM. FIG. 3D) is bar graph showing the average distance between centrosome fragments in HCT116 cells after treatments as shown. While centrosome fragments moved closer together with increased concentrations of paclitaxel, they moved further apart with increased concentrations of C75 (n=105; N=3). […]"}, "S2 cells": {"system": "S2 cells", "test": "Spindle phenotypes in live S2 cells expressing GFP-tagged tubulin", "assay_type": "cell-based, Drosophila", "conditions": "300 nM", "source_text": "This will permit using Drosophila proteins for binding studies in vitro, and genetics-based tools for further study of the target."}}, "data": [{"molecule": "COc1ccc(S(=O)(=O)N2Cc3ccccc3-c3sc(Br)cc32)cc1", "note": "[Compound C75]", "values": [{"measurement": "time until spindle poles collapse together in metaphase cells", "setting": "[1]; 100-300 nM", "result": "1 to 2", "unit": "min"}, {"measurement": "time after exposure until centrosomes fragmented or declustered and microtubules collapsed", "setting": "[1]; HeLa live imaging", "result": "4 to 6", "unit": "min"}, {"measurement": "time after washout until microtubule polymers grew back", "setting": "[1]; HeLa live imaging", "result": "20 to 30", "unit": "min"}, {"measurement": "microtubule polymers without washout", "setting": "[1]; HeLa live imaging, drugs not washed out", "result": "microtubule polymers grow back to form multipolar spindles"}, {"measurement": "combination with paclitaxel vs each alone, spindle phenotypes", "setting": "HCT 116 cells", "result": "synergize"}, {"measurement": "spindle phenotype in Drosophila S2 cells", "setting": "S2 cells", "result": "spindle phenotypes similar to what was observed in mammalian cells"}]}]}
